Laboratory results taken from patent publication US20100062437A1, “PARALLEL PROFILLING OF SIGNALING PATHWAYS” (priority 2007, published 2010).

How the values were obtained:
hSMG1 mRNA [1] = assay: Drug library screen, hSMG1 mRNA quantitation by branched DNA assay in HeLa cells; format: cell-based, human
Procedure: HeLa cells were separately exposed to each drug from the drug library in a multiwell plate format. After 24 h, hSMG mRNA was captured and quantified using a branched DNA assay (Collins et al., 1997). Actin mRNA levels were simultaneously measured from the same cell lysate in order to compensate for differences in viable cell number as a consequence of drug treatment. […] Both agents bind to and inhibit the Na^+/K^+-ATPase (Therien and Blostein, 2000).
Drug Library Screen and hSMG1 message quantitation. The QuantiGene® Explore kit (Panomics, Inc.) was used to furnish a direct quantitation of mRNA in a 96 well format. The “housekeeper gene” […] was selected as an intracellular control. Specific oligonucleotide probes for hSMG1, including capture extenders (CE), label extenders (LE) and blocking probes (BL) were designed with the Panomics ProbeDesigner™ software and synthesized. Prior to drug exposure, HeLa cells were incubated for 24 hr in 150 μL Dulbecco's modified Eagle Medium (DMEM) with 10% fetal bovine serum (FBS) and DLD-1 cells were incubated for 24 hr in 150 μL MEM with 1 mM MEM nonessential amino acids, 1 mM sodium pyrurate, 0.15% sodium bicarbonate, and 10% FBS. Cells were then exposed to various concentrations of the drugs for 24 hr and then lysed via incubation in 75 μL lysis buffer (QuantiGene® Explore kit) at 53° C. for 1 hr. Capture of hSMG1 and actin mRNA was conducted according to the manufacturers instructions and quantification performed using a microplate luminometer.

hSMG1 mRNA [2] = assay: hSMG1 mRNA quantitation (branched DNA assay) in DLD-1 cells exposed to ouabain; format: cell-based, human
Procedure: The QuantiGene® Explore kit (Panomics, Inc.) was used to furnish a direct quantitation of mRNA in a 96 well format. The “housekeeper gene” 13-actin was selected as an intracellular control. Specific oligonucleotide probes for hSMG1, including capture extenders (CE), label extenders (LE) and blocking probes (BL) were designed with the Panomics ProbeDesigner™ software and synthesized. Prior to drug exposure, HeLa cells were incubated for 24 hr in 150 μL Dulbecco's modified Eagle Medium (DMEM) with 10% fetal bovine serum (FBS) and DLD-1 cells were incubated for 24 hr in 150 μL MEM with 1 mM MEM nonessential amino acids, 1 mM sodium pyrurate, 0.15% sodium bicarbonate, and 10% FBS. Cells were then exposed to various concentrations of the drugs for 24 hr and then lysed via incubation in 75 μL lysis buffer (QuantiGene® Explore kit) at 53° C. for 1 hr. Capture of hSMG1 and actin mRNA was conducted according to the manufacturers instructions and quantification performed using a microplate luminometer.

hSMG1 mRNA [3] = assay: hSMG1 over-expression response to ouabain in other cell lines; format: cell-based
ATR = ATR mRNA quantity in DLD-1 cells in response to ouabain; format: cell-based, human
Text: (§1) hSMG1 is a member of the PIKK family, which also includes ATM, ATR, mTOR, and DNA-PK (Therien and Blostein, 2000). These large, structurally homologous, proteins have been implicated as participants in the cellular response to various forms of stress.

ATM = ATM mRNA quantity in DLD-1 cells in response to ouabain; format: cell-based, human
Text: as §1

DNAPK = DNAPK mRNA quantity in DLD-1 cells in response to ouabain; format: cell-based, human
Text: as §1

mTOR = mTOR mRNA quantity in DLD-1 cells in response to ouabain; format: cell-based, human
Text: as §1

[4] = test system: hSMG1 transcription sites; assay: Fluorescence in situ hybridization (FISH) of active hSMG1 transcription sites in DLD-1 cells; format: cell-based, human; details: ouabain 10 μM for 1 hr, untreated 0.19
Text: The branched chain DNA assay affords an averaged expression response from a cell population. The magnitude of this response is a function of actin mRNA levels, a baseline that furnishes relative, but not absolute, hSMG1 mRNA quantity. Since actin mRNA levels may be susceptible to influence by these drugs as well, fluorescence in situ hybridization was employed to directly visualize hSMG1 mRNA transcription sites in the DLD-1 cell line. […] Furthermore, these enhanced levels of mRNA synthesis rate and quantity directly translate into higher proteins levels, as exemplified by the ouabain-induced 2.7-fold increase in hSMG1 protein in DLD-1 cells (FIG. 2).
Fluorescence in situ hybridization (FISH). Previously described oligomer probes, each 50 bases in length from four regions of the hSMG1 gene, were designed with OLIGO software from Molecular Biology Insights, Inc., and synthesized on an Applied Biosystems automated DNA/RNA synthesizer (Capodieci et al., 2005). The activated fluorophore cy3 (Amersham) was used to label the probes. DLD-1 cells were seeded onto gelatinized coverslips, incubated as described above for 24 hr, and then treated with ouabain (10 μm) for 1 hr. […] The FISH specimens were imaged and analyzed as previously described (Capodieci et al., 2005).

hSMG1 protein = hSMG1 protein quantitation by Western blot in DLD-1 cells; format: cell-based, human; details: 10 μM ouabain for 24 hr
Procedure: hSMG1 Protein Quantitation. DLD-1 cells were exposed to 10 μM ouabain for 24 hr and subsequently lysed. Total protein concentration, following centrifugation, was determined using the BCA Protein Assay Kit (Pierce). Following electrophoresis, the membrane was divided and the individual halves separately exposed to the SMG1 antibody BL1657 (Bethyl Laboratories) and the actin antibody A5441 (Sigma) and then subsequently incubated with the appropriate horseradish peroxidase conjugated secondary antibodies. The membranes were treated with the Pierce Supersignal West Pico chemiluminescent reagent and quantified.

DLD-1 cells = assay: Degradation of long-lived proteins (proteolysis) in DLD-1 cells; format: cell-based, human
Text: The Na^+/K^+-ATPase is the common target of ouabain, digoxin, and digitoxin (Buckalew, 2005). Na^+/K^+-ATPase inhibition induces a plethora of effects including (a) disruption of the Na^+/K^+ gradient and consequent increase in intracellular [Ca^2+] (Grapengiesser et al., 1993), (b) interference with amino acid uptake (Johnson et al., 1986), and (c) the production of reactive oxygen species resulting in oxidative damage to proteins and organelles (Xie et al., 1999). Each of these individual events is either sufficient or necessary to promote autophagy. The latter maintains cell viability by furnishing essential biochemical building blocks via degradation of existing proteins and organelles in lysosomes (Levine and Klionsky, 2004). However, the effect of ouabain, or its cardiotonic congeners, on autophagy has not been examined. The later was explored by measuring rates of degradation of long-lived proteins, the preferential substrate for lysosomal degradation, in DLD-1 cells. […] The latter implies that macroautophagy, the degradation of sequestered material in a vesicular-based fashion, along with other types of autophagy (i.e. chaperone-mediated autophagy and microautophagy) contribute to ouabain-induced proteolysis.
Intracellular Protein Turnover. Rates of protein synthesis were measured in confluent cells as the incorporation of [3H]leucine [10 μCi/ml (1 Ci=37 GBq)] into acid-insoluble material in the presence of an excess (2.8 mM) of unlabeled leucine in the medium (to minimize differences due to alteration of amino acid transport and/or intracellular amino acid pool sizes). 28 To measure degradation of long-lived proteins, confluent cells were labeled with [3H]leucine (2 μCi/ml) for 48 h at 37° C. and then extensively washed and maintained in complete or amino acid depleted medium containing an excess of unlabeled leucine. Aliquots of the medium taken at different times were precipitated with trichloroacetic acid, and proteolysis was calculated as the amount of acid precipitable radioactivity converted into acid soluble at each time (Auteri et al., 1983). Where indicated, 20 mM NH4Cl and 100 μM leupeptine or 10 mM 3-methyladenine were added during the chase to block lysosomal proteolysis or macroautophagy, respectively.

HEK293 cells = assay: Rate of proteolysis in HEK293 cells after hSMG1 RNAi knockdown; format: cell-based, human; details: RNAi knockdown of hSMG1, lysosomal inhibitor added
Text: Autophagy is the quintessential cellular response to limited nutrient supplies and/or the presence of damaged cytoplasmic components (Levine and Yuan, 2005). The corresponding ouabain-induced overexpression of hSMG1 may be a biochemical mechanism by which metabolic homeostasis is re-established, either by inhibiting or promoting autophagy. The possible influence of hSMG1 on autophagy was examined via a series of RNAi knockdown experiments. […] Consequently, all knockdown experiments were performed using the 293 cell line. Following RNAi knockdown, cells were either exposed to or deprived of amino acids and the effect on the rate of proteolysis noted. […] Protein degradation is enhanced in RNAi knockdown cells versus their unaltered counterparts (FIG. 3a). […]
Intracellular Protein Turnover. Rates of protein synthesis were measured in confluent cells as the incorporation of [3H]leucine [10 μCi/ml (1 Ci=37 GBq)] into acid-insoluble material in the presence of an excess (2.8 mM) of unlabeled leucine in the medium (to minimize differences due to alteration of amino acid transport and/or intracellular amino acid pool sizes). […] Aliquots of the medium taken at different times were precipitated with trichloroacetic acid, and proteolysis was calculated as the amount of acid precipitable radioactivity converted into acid soluble at each time (Auteri et al., 1983). […]

Structure (SMILES) | enhancement of hSMG1 expression levels (hSMG1 mRNA [1]) | hSMG1 over-expression response (hSMG1 mRNA [2]; DLD-1 adenocarcinoma, ouabain 10 μM) | enhancement in hSMG1 mRNA quantity (hSMG1 mRNA [2]; DLD-1 cells in response to ouabain) | hSMG1 Expression relative to untreated cells (hSMG1 mRNA [2]; DLD-1 cells, ouabain 10 μM alone, mean ± S.D. of three wells) | hSMG1 over-expression response (hSMG1 mRNA [3]; 786-0 renal carcinoma, ouabain 10 μM) | hSMG1 over-expression response (hSMG1 mRNA [3]; GM02037 wild type fibroblast, ouabain 10 μM) | hSMG1 over-expression response (hSMG1 mRNA [3]; HEK 293, ouabain 10 μM) | hSMG1 over-expression response (hSMG1 mRNA [3]; PC3 prostate carcinoma, ouabain 10 μM) | hSMG1 over-expression response (hSMG1 mRNA [3]; U87 glioblastoma, ouabain 10 μM) | hSMG1 over-expression response (hSMG1 mRNA [3]; primary astrocyte, ouabain 10 μM) | change in ATR mRNA quantity (ATR) | change in ATM mRNA quantity (ATM) | change in DNAPK mRNA quantity (DNAPK) | change in mTOR mRNA quantity (mTOR) | fraction of cells displaying active hSMG1 transcription sites [4] | increase in hSMG1 protein (hSMG1 protein) | effect on proteolysis (degradation of long-lived proteins) (DLD-1 cells; ouabain 10 μM, compared with amino acid starvation) | effect on ouabain-induced increase in protein degradation (DLD-1 cells; ouabain treated, 20 mM NH4Cl and 100 μM leupeptine or 10 mM 3-methyladenine during the chase) | effect on protein degradation caused by hSMG1 knockdown (HEK293 cells)
C[C@@H]1O[C@@H](O[C@H]2C[C@@H](O)[C@]3(CO)[C@H]4[C@H](O)C[C@]5(C)[C@@H](C6=CC(=O)OC6)CC[C@]5(O)[C@@H]4CC[C@]3(O)C2)[C@H](O)[C@H](O)[C@H]1O [Ouabain, ouabain] | 2 fold | 4.3±0.1 fold | 4.3±0.1 | 4.3 ± 0.1 | 6.1±0.4 fold | 3.4±0.1 fold | 3.3±0.2 fold | 2.7±0.2 fold | 1.4±0.1 fold | 5.4±0.1 fold | 0.7±0.1 fold | 1.1±0.1 fold | 0.8±0.1 fold | 1.3±0.1 fold | 0.63±0.1 | 2.7 fold | dramatically enhances proteolysis | – | –
Cl.N [ammonium chloride] | – | – | – | – | – | – | – | – | – | – | – | – | – | – | – | – | – | completely blocked | only partly mitigates the effect of hSMG1 knockdown on protein degradation
